{"source": "patent US20090163474A1", "about": "“FXR Agonists for the Treatment of Nonalcoholic Fatty Liver and Cholesterol Gallstone Diseases” (Wyeth, priority 2007, published 2009)", "key": {"[1]": {"test_system": "C57Bl/6 mice fed a MCD diet (preformed NASH)", "assay": "Preformed NASH in MCD diet fed mice", "type": "in vivo", "settings": "MCD diet 2 weeks", "description": "C57Bl/6 mice were fed a MCD diet for 2 weeks to induce the development of NASH to study the effect of Compound A treatment on preformed NASH. These mice were then maintained on the MCD diet while being treated with vehicle or Compound A. Mice were euthanized 2 weeks (2 w), and 4 weeks (4 w) after the beginning of treatment with vehicle or Compound A for analysis. As controls, mice were fed a chow diet or fed a MCD diet for 2 weeks, and then euthanized for analysis."}, "Hep3B cells": {"test_system": "Hep3B cells", "assay": "FXR siRNA studies in Hep3B cells", "type": "cell-based, Human", "settings": "Compound A 1 μM, 50 ng/ml IL-6", "procedure": "FXR siRNA studies were performed in Hep3B cells. […] The cells were transfected with FXR siRNA or control siRNA, stimulated with 50 ng/ml IL-6, and treated with control (DMSO) or Compound A (1 μM). CRP concentrations in the conditional media were measured by ELISA. (*P<0.01, Control siRNA/DMSO vs. Control siRNA/Compound A).\nThe Hep3B cells were transfected with FXR siRNA or control siRNA, stimulated with 50 ng/ml IL-6, and treated with control (DMSO) or Compound A (1 μM). […] (*P<0.001, Control siRNA vs. FXR siRNA)."}, "mice fed a Paigen diet": {"test_system": "mice fed a Paigen diet", "assay": "Gallstone formation in Paigen diet fed mice", "type": "in vivo", "settings": "30 mg/kg orally once a day for 4 weeks", "procedure": "To study gallstone formation, gallbladders were harvested from mice fed a Paigen diet and administered vehicle or 30 mg/kg Compound A orally once a day for 4 weeks."}, "[2]": {"test_system": "C57BL/6 mice fed a Paigen diet", "assay": "Paigen diet fed mice: serum, liver gene expression and liver histology", "type": "in vivo", "settings": "30 mg/kg orally once a day for 4 weeks", "procedure": "Male C57BL/6 mice were fed a standard chow diet or a Paigen diet (TestDiet 32350 containing 7.5% Cocoa Butter, 1.25% cholesterol, and 0.5% cholic acid). Paigen diet fed mice were administered vehicle or 30 mg/kg FXR agonist, Compound A (isopropyl 3-(3,4-difluorobenzoyl)-1,1-dimethyl-1,2,3,6-tetrahydroazepino[4,5-b]indole-5-carboxylate) orally once a day for 4 weeks. Three hours after the final treatment, mice were euthanized and blood and liver were collected for analyses.\nReal-time RT PCR analysis of liver RNA was performed. FIGS. 3A, 3B, and 3C show the expression levels of vascular cell adhesion molecule 1 (VCAM-1), intercellular adhesion molecule-1 (ICAM-1), and tumor necrosis factor α (TNFα). Expression levels were normalized to GAPDH, and the mean level of expression of each gene in mice fed a standard chow diet was defined as 1.0. 6 mice were tested in each group. Data are presented as the mean±SE.\nMale C57BL/6 mice were fed a chow diet or a Paigen diet. Paigen fed mice were administered vehicle or 30 mg/kg Compound A orally once a day for 4 weeks. Three hours after the final treatment, mice were euthanized, and histological analysis of livers was performed. Frozen liver sections (5 μm) were prepared and stained with Oil Red O, hematoxylin and eosin (H&E), and Masson's trichrome (Trichrome).\nMale C57BL/6 mice were fed a chow diet or a Paigen diet. Paigen fed mice were administered vehicle or 30 mg/kg Compound A orally once a day for 4 weeks. Three hours after the final treatment, mice were euthanized, and real-time RT PCR analysis of liver RNA was performed."}, "[3]": {"test_system": "FXRKO mice challenged with LPS", "assay": "LPS-induced liver acute phase response, FXR deficient mice", "type": "in vivo", "settings": "30 mg/kg for 4 days; LPS treated FXRKO mice", "procedure": "(§1) Wildtype and FXR deficient mice were treated with Compound A (30 mg/kg) or vehicle for 4 days. On day 4, mice were challenged with 2.5 micrograms of lipopolysaccharide (LPS) to induce an acute phase response. After 4 hours, the mice were euthanized and their livers were harvested for analysis of expression of various factors. […] Compound A attenuated the LPS-induced murine liver acute phase response. […] (*P<0.01, WT/LPS/V vs. WT/LPS/Compound A)."}, "[4]": {"test_system": "Wildtype mice challenged with LPS", "assay": "LPS-induced liver acute phase response, wildtype mice", "type": "in vivo", "settings": "30 mg/kg for 4 days; 2.5 micrograms LPS, 4 hours; P<0.01", "procedure": "as §1"}, "[5]": {"settings": "then 2-week (P<0.001) and 4-week (P<0.01) treatment on MCD diet"}, "[6]": {"settings": "then 2-week and 4-week treatment on MCD diet, P<0.01"}, "[7]": {"settings": "RT PCR, normalized to GAPDH, p<0.0001"}}, "data": [{"compound": "CC(C)OC(=O)C1=CN(C(=O)c2ccc(F)c(F)c2)CC(C)(C)c2c1[nH]c1ccccc21", "note": "[Compound A, isopropyl 3-(3,4-difluorobenzoyl)-1,1-dimethyl-1,2,3,6-tetrahydroazepino[4,5-b]indole-5-carboxylate]", "values": [{"measurement": "liver Col1a2 gene expression level vs vehicle", "setting": "[1]; [5]", "value": "significantly lowered"}, {"measurement": "liver MMP-2 gene expression level vs vehicle", "setting": "[1]; [5]", "value": "significantly lowered"}, {"measurement": "liver TIMP-1 gene expression level vs vehicle", "setting": "[1]; [5]", "value": "significantly lowered"}, {"measurement": "liver MCP-1 gene expression level vs vehicle", "setting": "[1]; [6]", "value": "significantly lowered"}, {"measurement": "liver VCAM-1 gene expression level vs vehicle", "setting": "[1]; [6]", "value": "significantly lowered"}, {"measurement": "serum level of ALT vs vehicle", "setting": "[1]; [6]", "value": "significantly reduced"}, {"measurement": "serum level of AST vs vehicle", "setting": "[1]; [6]", "value": "significantly reduced"}, {"measurement": "CRP inhibition at the mRNA level in cells transfected with FXR siRNA", "setting": "Hep3B cells", "value": "suppressed"}, {"measurement": "inhibitory effect on CRP secretion in cells transfected with FXR siRNA", "setting": "Hep3B cells; ELISA", "value": "FXR siRNA blocked Compound A's inhibitory effect"}, {"measurement": "cholesterol gallstones in gallbladders (gross morphology)", "setting": "mice fed a Paigen diet", "value": "clearly visible in the gallbladders of vehicle but not Compound A treated mice"}, {"measurement": "Gallstone formation (incidence, mice with gallstones/mice)", "setting": "mice fed a Paigen diet; vehicle 14/19", "value": "0/20"}, {"measurement": "incidence of gallstone formation", "setting": "mice fed a Paigen diet; vehicle 73.7%", "value": 0, "unit": "%"}, {"measurement": "Paigen diet induced liver damage (histological analyses)", "setting": "[2]", "value": "attenuated Paigen diet induced liver damage"}, {"measurement": "intracellular vacuoles characteristic of lipid droplets in liver (H&E and Trichrome)", "setting": "[2]", "value": "reduced the number and severity of the vacuoles"}, {"measurement": "liver BSEP expression level, increase", "setting": "[2]; Paigen diet", "value": 2.41, "unit": "fold"}, {"measurement": "liver MDR2 expression level, increase", "setting": "[2]; Paigen diet", "value": 1.4, "unit": "fold"}, {"measurement": "liver SHP expression level, increase", "setting": "[2]; Paigen diet", "value": 4.85, "unit": "fold"}, {"measurement": "liver ICAM-1 expression level (Paigen diet induction)", "setting": "[2]; [7]", "value": "significantly inhibited"}, {"measurement": "liver TNFα expression level (Paigen diet induction)", "setting": "[2]; [7]", "value": "significantly inhibited"}, {"measurement": "liver VCAM-1 expression level (Paigen diet induction)", "setting": "[2]; [7]", "value": "significantly inhibited"}, {"measurement": "inflammatory cholangitis with portal inflammation in liver", "setting": "[2]; histology", "value": "significantly more severe in the livers of vehicle treated compared to Compound A treated mice"}, {"measurement": "serum alanine aminotransferase (ALT) activity level", "setting": "[2]; mean±SE, vehicle 292.1±33.6 U/L, p<0.0001", "value": "98.1±22.5", "unit": "U/L"}, {"measurement": "serum level of MCP-1 vs vehicle", "setting": "[2]; p<0.0001", "value": "significantly reduced"}, {"measurement": "neutral lipid accumulation in the liver (Oil Red O staining)", "setting": "[2]; vs vehicle", "value": "reduction in neutral lipid accumulation"}, {"measurement": "liver FAS expression, further induction", "setting": "[2]; vs vehicle treated Paigen diet mice, p<0.0001", "value": 2.4, "unit": "fold"}, {"measurement": "liver SAA-3 levels", "setting": "[3]", "value": "not significantly altered"}, {"measurement": "liver SAP levels", "setting": "[3]", "value": "not significantly altered"}, {"measurement": "liver VCAM-1 levels", "setting": "[3]", "value": "not significantly altered"}, {"measurement": "reduction of liver SAA-3 levels vs vehicle", "setting": "[4]", "value": 35, "unit": "%"}, {"measurement": "reduction of liver SAP levels vs vehicle", "setting": "[4]", "value": 40, "unit": "%"}, {"measurement": "reduction of liver VCAM-1 levels vs vehicle", "setting": "[4]", "value": 40, "unit": "%"}]}]}
